Measured values reported in patent US10770169B2, “Method of providing a treatment to a subject based on a dynamic pathway map” (THE REGENTS OF THE UNIVERSITY OF CALIFORNIA, priority 2010, dated 2020).

Test system: panel of 55 breast cancer cell lines
Test: Cell growth inhibition assay (Cell Titer Glo, 72 h, 9 doses; GI50, TGI, LC50)
Format: cell-based, human
Settings: value is the negative log10 of mol/L
[1] = BT20 cell line, censored GI50 values
[2] = BT483 cell line, censored GI50 values
[3] = HCC1187 cell line, censored GI50 values
[4] = HCC2185 cell line, censored GI50 values
[5] = SUM52PE cell line, censored GI50 values
[6] = SUM149PT cell line, censored GI50 values
[7] = SUM185PE cell line, censored GI50 values
[8] = ZR751 cell line, censored GI50 values

CC(C)[C@H](CO)Nc1nc(Nc2cccc(Cl)c2)c2ncn(C(C)C)c2n1 [Purvalanol A]
GI50 (600MPE cell line, censored GI50 values): 4.52 | GI50 (AU565 cell line, censored GI50 values): 5.01 | GI50 [1]: 4.56 | GI50 [2]: 4.40 | GI50 (HCC202 cell line, censored GI50 values): 3.99 | GI50 [3]: 4.74 | GI50 (HCC1428 cell line, censored GI50 values): 4.44 | GI50 (HCC1806 cell line, censored GI50 values): 4.00 | GI50 (HCC1937 cell line, censored GI50 values): 4.97 | GI50 (HCC1954 cell line, censored GI50 values): 4.43 | GI50 [4]: 4.57 | GI50 (MCF7 cell line, censored GI50 values): 4.80 | GI50 (MDAMB134VI cell line, censored GI50 values): 4.26 | GI50 (MDAMB175VII cell line, censored GI50 values): 4.46 | GI50 (MDAMB468 cell line, censored GI50 values): 4.12 | GI50 (SKBR3 cell line, censored GI50 values): 4.60 | GI50 [5]: 4.79 | GI50 [6]: 4.88 | GI50 [7]: 4.69 | GI50 (SUM225CWN cell line, censored GI50 values): 4.28 | GI50 (SUM1315MO2 cell line, censored GI50 values): 5.09 | GI50 [8]: 4.01 | GI50 (cell line 600MPE): 4.52 | GI50 (cell line AU565): 5.01 | GI50 (cell line BT20): 4.56 | GI50 (cell line BT474): 3.78 | GI50 (cell line BT483): 4.40 | GI50 (cell line BT549): 3.78 | GI50 (cell line CAMA1): 3.86 | GI50 (cell line HCC70): 3.78 | GI50 (cell line HCC202): 3.99 | GI50 (cell line HCC1143): 3.78 | GI50 (cell line HCC1187): 4.74 | GI50 (cell line HCC1395): 3.78 | GI50 (cell line HCC1419): 3.78 | GI50 (cell line HCC1428): 4.44 | GI50 (cell line HCC1500): 3.95 | GI50 (cell line HCC1806): 4.00 | GI50 (cell line HCC1937): 4.97 | GI50 (cell line HCC1954): 4.43 | GI50 (cell line HCC2185): 4.57 | GI50 (cell line HCC3153): 3.83 | GI50 (cell line MCF7): 4.80 | GI50 (cell line MDAMB134V): 4.26 | GI50 (cell line MDAMB157): 3.78 | GI50 (cell line MDAMB175V): 4.46 | GI50 (cell line MDAMB231): 3.78 | GI50 (cell line MDAMB361): 3.78 | GI50 (cell line MDAMB436): 3.78 | GI50 (cell line MDAMB468): 4.12 | GI50 (cell line SKBR3): 4.60 | GI50 (cell line SUM52PE): 4.79 | GI50 (cell line SUM149PT): 4.88 | GI50 (cell line SUM159PT): 3.78 | GI50 (cell line SUM185PE): 4.69 | GI50 (cell line SUM225CWN): 4.28 | GI50 (cell line SUM1315MO): 5.09 | GI50 (cell line T47D): 3.78 | GI50 (cell line UACC893): 3.78 | GI50 (cell line ZR75B): 3.78 | GI50 (cell line ZR751): 4.01

O=S(=O)(CC1CS1)c1ccc(Oc2ccccc2)cc1 (centres unmarked) [SB-3CT]
GI50 [1]: 4.42 | GI50 (BT474 cell line, censored GI50 values): 4.99 | GI50 [2]: 4.59 | GI50 (HCC38 cell line, censored GI50 values): 4.62 | GI50 [3]: 4.83 | GI50 [4]: 4.21 | GI50 (MDAMB361 cell line, censored GI50 values): 4.00 | GI50 (MDAMB415 cell line, censored GI50 values): 4.00 | GI50 [5]: 4.22 | GI50 [6]: 4.53 | GI50 (SUM159PT cell line, censored GI50 values): 4.85 | GI50 [7]: 4.76 | GI50 (UACC812 cell line, censored GI50 values): 4.28 | GI50 (ZR75B cell line, censored GI50 values): 4.62 | GI50 [8]: 4.00 | GI50 (cell line AU565): 4.00 | GI50 (cell line BT20): 4.42 | GI50 (cell line BT474): 4.99 | GI50 (cell line BT483): 4.59 | GI50 (cell line CAMA1): 4.00 | GI50 (cell line HCC38): 4.62 | GI50 (cell line HCC70): 3.88 | GI50 (cell line HCC1143): 4.00 | GI50 (cell line HCC1187): 4.83 | GI50 (cell line HCC1395): 3.78 | GI50 (cell line HCC1419): 3.78 | GI50 (cell line HCC1428): 4.18 | GI50 (cell line HCC1500): 3.78 | GI50 (cell line HCC1806): 4.00 | GI50 (cell line HCC1937): 4.00 | GI50 (cell line HCC1954): 4.00 | GI50 (cell line HCC2185): 4.21 | GI50 (cell line HCC3153): 4.00 | GI50 (cell line MCF7): 4.00
